Assay results as given in the supplement of paper PMC10307832.

Key:
Experiment in all cases: relative viability (nuclei count vs DMSO), 5 days (fraction); higher = more cells survive
Decitabine + Tozasertib = compound: Nc1ncn([C@H]2C[C@H](O)[C@@H](CO)O2)c(=O)n1 [Decitabine] + Cc1cc(Nc2cc(N3CCN(C)CC3)nc(Sc3ccc(NC(=O)C4CC4)cc3)n2)n[nH]1 [Tozasertib] (partner 0.1 µM)
Outline: (§1)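 After 5 days of treatment, lung cancer cells in 1536-well plates were fixed and stained in a single step (final 0.05% Triton X-100, 1% formaldehyde, 1 ug/ml Hoechst) and their nuclei counted on 4× images. Treatment had been applied by pin tool the day after seeding as one drug alone or as a fixed anchor-drug dose with five library-drug doses (not always all listed) in √10 steps. Relative viability is the nuclei count of treated wells divided by that of vehicle wells, and values are medians of duplicate plates.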

Halofuginone + OSI-027 = compound: O=C(C[C@H]1NCCC[C@@H]1O)Cn1cnc2cc(Br)c(Cl)cc2c1=O (racemic) [Halofuginone] + COc1cccc2cc(-c3nc([C@H]4CC[C@H](C(=O)O)CC4)n4ncnc(N)c34)[nH]c12 [OSI-027] (partner 0.5 µM)
Outline: as §1

[1] = compound: O=C(C[C@H]1NCCC[C@@H]1O)Cn1cnc2cc(Br)c(Cl)cc2c1=O (racemic) [Halofuginone] + CS(=O)(=O)N1CCN(Cc2cc3nc(-c4cccc5[nH]ncc45)nc(N4CCOCC4)c3s2)CC1 [Pictilisib] (partner 1 µM)
Outline: as §1

[2] = compound: O=C(C[C@H]1NCCC[C@@H]1O)Cn1cnc2cc(Br)c(Cl)cc2c1=O (racemic) [Halofuginone] + O=C(CCCCCCC(=O)Nc1ccccc1)NO [Vorinostat] (partner 1 µM)
Outline: as §1

Cell Line	relative viability (Decitabine + Tozasertib; first compound 0.04 µM)	relative viability (Decitabine + Tozasertib; first compound 0.1265 µM)	relative viability (Decitabine + Tozasertib; first compound 0.4 µM)	relative viability (Decitabine + Tozasertib; first compound 1.265 µM)	relative viability (Decitabine + Tozasertib; first compound 4 µM)	relative viability (Halofuginone + OSI-027; first compound 0.001 µM)	relative viability (Halofuginone + OSI-027; first compound 0.003162 µM)	relative viability (Halofuginone + OSI-027; first compound 0.01 µM)	relative viability (Halofuginone + OSI-027; first compound 0.03162 µM)	relative viability (Halofuginone + OSI-027; first compound 0.1 µM)	relative viability ([1]; first compound 0.001 µM)	relative viability ([1]; first compound 0.003162 µM)	relative viability ([1]; first compound 0.01 µM)	relative viability ([1]; first compound 0.03162 µM)	relative viability ([1]; first compound 0.1 µM)	relative viability ([2]; first compound 0.001 µM)	relative viability ([2]; first compound 0.003162 µM)	relative viability ([2]; first compound 0.01 µM)	relative viability ([2]; first compound 0.03162 µM)	relative viability ([2]; first compound 0.1 µM)
NCI-H1651	0.521	0.718	0.6	0.378	0.371	0.825	0.701	0.655	0.665	0.382	0.677	0.586	0.548	0.522	0.243	0.528	0.528	0.572	0.548	0.59
NCI-H1666	0.514	0.577	0.615	0.502	0.517	1.01	0.869	0.766	0.955	0.852	0.483	0.357	0.443	0.406	0.323	1.14	0.966	0.999	0.984	0.955
NCI-H1734	0.265	0.246	0.221	0.206	0.192	0.579	0.587	0.543	0.554	0.501	0.46	0.492	0.403	0.449	0.327	0.891	0.9	0.838	0.753	0.607
NCI-H1755	0.525	0.538	0.473	0.372	0.357	0.76	0.788	0.677	0.753	0.627	0.478	0.468	0.445	0.493	0.287	0.758	0.838	0.722	0.768	0.669
NCI-H1793	0.288	0.335	0.247	0.226	0.207	0.299	0.253	0.297	0.288	0.196	0.329	0.216	0.33	0.381	0.228	0.898	0.672	0.664	0.846	0.497
NCI-H1915	0.274	0.224	0.174	0.175	0.189	0.616	0.62	0.643	0.549	0.544	0.917	1.04	0.915	0.861	0.882	0.531	0.554	0.561	0.472	0.511
NCI-H1944	0.234	0.268	0.22	0.201	0.186	0.422	0.431	0.447	0.404	0.343	0.317	0.398	0.347	0.35	0.307	0.565	0.536	0.519	0.477	0.513
NCI-H1975	0.279	0.239	0.132	0.152	0.129	0.751	0.744	0.67	0.473	0.348	0.319	0.298	0.31	0.225	0.106	0.744	0.697	0.441	0.47	0.179
NCI-H1993	0.682	0.591	0.683	0.568	0.553	0.56	0.592	0.564	0.47	0.523	0.788	0.749	0.891	0.807	0.803	1.1	0.852	0.809	0.0067	0.576
NCI-H2009	0.628	0.451	0.399	0.312	0.252	0.835	0.795	0.655	0.468	0.264	1.07	0.878	0.758	0.689	0.26	0.86	0.703	0.76	0.703	0.462
NCI-H2023	0.218	0.226	0.157	0.0961	0.122	0.488	0.421	0.36	0.3	0.0722	0.268	0.232	0.228	0.141	0.0681	0.81	0.64	0.56	0.453	0.0822
NCI-H2085	0.666	0.669	0.54	0.454	0.437	0.886	0.832	0.755	0.721	0.523	0.58	0.407	0.448	0.515	0.48	0.817	0.805	0.759	0.815	0.748
NCI-H2087	0.229	0.194	0.176	0.129	0.153	0.439	0.593	0.528	0.484	0.424	0.986	1.01	0.799	1	0.831	0.72	0.713	0.773	0.723	0.484
NCI-H2126	0.648	0.606	0.425	0.451	0.399	0.727	0.604	0.695	0.612	0.549	0.562	0.486	0.533	0.485	0.427	0.903	0.762	0.784	0.74	0.562
NCI-H2170	0.447	0.472	0.347	0.298	0.217	0.699	0.714	0.738	0.651	0.659	0.311	0.313	0.313	0.32	0.26	0.853	0.831	0.799	0.825	0.802
NCI-H2228	0.176	0.207	0.134	0.114	0.104	0.741	0.647	0.465	0.371	0.198	0.355	0.455	0.398	0.224	0.095	0.822	0.807	0.726	0.424	0.0673
